Experimental findings from patent publication US8952024B2, “Herbicidal pyrimidone derivatives” (E I du Pont de Nemours and Company, priority 2009, dated 2015) are described below.

Molecules are shown by their SMILES.

For the first assay, the system named is morningglory (Ipomoea spp.). Kind of assay: Test A pre-/postemergence plant response. The conditions noted are these: Preemergence, 125 g ai/ha; 0 to 100 scale, 0 = no effect, 100 = complete control. It counts as in vivo. A digest of the protocol:
(§1)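 Injury scores (0, no effect; 100, complete control) come from visual comparison with untreated controls roughly ten days post-treatment. Test chemicals in a surfactant-containing non-phytotoxic solvent were applied as a directed soil spray preemergence and to one- to two-leaf seedlings postemergence.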
As for `Cc1c(Cl)cccc1-n1c(-c2ccccc2)ncc(C(=O)C2=C(O)CCCC2=O)c1=O` [Compound 40], the “Plant response rating, Morningglory” value is recorded as 10.

Still in this assay, the particulars now being: Preemergence, 500 g ai/ha; visual injury, 0 to 100 scale (0 no effect, 100 complete control), approx. ten days.
As to `Cc1c(Cl)cccc1-n1c(-c2ccccc2)ncc(C(=O)C2=C(O)CCCC2=O)c1=O` [Compound 40], the “Plant response rating, Morningglory” value is 80.

A further assay has as its system velvetleaf (Abutilon theophrasti). Kind of assay: Test A pre-/postemergence plant response. It counts as in vivo. To be noted: Postemergence, 125 g ai/ha; visual injury, 0 to 100 scale (0 no effect, 100 complete control), approx. ten days. In a few lines:
as §1
`Cc1c(Cl)cccc1-n1c(-c2ccccc2)ncc(C(=O)C2=C(O)CCCC2=O)c1=O` [Compound 40]: the “Velvetleaf plant response rating” value is given as 100.

Staying with this assay, now noted: Postemergence, 500 g ai/ha; 0 to 100 scale, 0 = no effect, 100 = complete control; approx. ten days.
Regarding `Cc1c(Cl)cccc1-n1c(-c2ccccc2)ncc(C(=O)C2=C(O)CCCC2=O)c1=O` [Compound 40], the “Plant response rating, Velvetleaf” value turned out to be 100.

The same assay, now with this note: Preemergence, 125 g ai/ha; 0 to 100 scale, 0 = no effect, 100 = complete control.
Consider `Cc1c(Cl)cccc1-n1c(-c2ccccc2)ncc(C(=O)C2=C(O)CCCC2=O)c1=O` [Compound 40], for which the “Plant response rating, Velvetleaf” value is on record as 70.

Still in this assay, the particulars now being: Preemergence, 500 g ai/ha; visual injury, 0 to 100 scale (0 no effect, 100 complete control), approx. ten days.
With `Cc1c(Cl)cccc1-n1c(-c2ccccc2)ncc(C(=O)C2=C(O)CCCC2=O)c1=O` [Compound 40], the “Plant response rating, Velvetleaf” value worked out at 100.

The next assay deals with giant foxtail (Setaria faberii). Kind of assay: Test A pre-/postemergence plant response. The class given is in vivo. The conditions noted are these: Postemergence, 125 g ai/ha; visual injury, 0 to 100 scale (0 no effect, 100 complete control), approx. ten days. In a few lines:
as §1
In the case of `Cc1c(Cl)cccc1-n1c(-c2ccccc2)ncc(C(=O)C2=C(O)CCCC2=O)c1=O` [Compound 40], the “Foxtail, Giant plant response rating” value amounted to 90.

Staying with this assay, now noted: Postemergence, 500 g ai/ha; 0 to 100 scale, 0 = no effect, 100 = complete control; approx. ten days.
For `Cc1c(Cl)cccc1-n1c(-c2ccccc2)ncc(C(=O)C2=C(O)CCCC2=O)c1=O` [Compound 40], the “Plant response rating, Foxtail, Giant” value worked out at 100.

Still in this assay, the particulars now being: Preemergence, 125 g ai/ha; 0 to 100 scale, 0 = no effect, 100 = complete control.
On to `Cc1c(Cl)cccc1-n1c(-c2ccccc2)ncc(C(=O)C2=C(O)CCCC2=O)c1=O` [Compound 40], for which the “Plant response rating, Foxtail, Giant” value stood at 50.

Still in this assay, the particulars now being: Preemergence, 500 g ai/ha; visual injury, 0 to 100 scale (0 no effect, 100 complete control), approx. ten days.
For the compound `Cc1c(Cl)cccc1-n1c(-c2ccccc2)ncc(C(=O)C2=C(O)CCCC2=O)c1=O` [Compound 40], the “Plant response rating, Foxtail, Giant” value is 90.

Another assay relates to wheat (Triticum aestivum). Briefly: Test A pre-/postemergence plant response. It counts as in vivo. The conditions noted are these: Postemergence, 125 g ai/ha; visual injury, 0 to 100 scale (0 no effect, 100 complete control), approx. ten days. In a few lines:
as §1
Turning to `Cc1c(Cl)cccc1-n1c(-c2ccccc2)ncc(C(=O)C2=C(O)CCCC2=O)c1=O` [Compound 40], the “Wheat plant response rating” value came out at 0.

The same assay, now with this note: Postemergence, 500 g ai/ha; 0 to 100 scale, 0 = no effect, 100 = complete control; approx. ten days.
Take `Cc1c(Cl)cccc1-n1c(-c2ccccc2)ncc(C(=O)C2=C(O)CCCC2=O)c1=O` [Compound 40]: the “Plant response rating, Wheat” value is 0.

Staying with this assay, now noted: Preemergence, 125 g ai/ha; 0 to 100 scale, 0 = no effect, 100 = complete control.
Consider `Cc1c(Cl)cccc1-n1c(-c2ccccc2)ncc(C(=O)C2=C(O)CCCC2=O)c1=O` [Compound 40], for which the “Plant response rating, Wheat” value amounted to 0.

Staying with this assay, now noted: Preemergence, 500 g ai/ha; visual injury, 0 to 100 scale (0 no effect, 100 complete control), approx. ten days.
For the compound `Cc1c(Cl)cccc1-n1c(-c2ccccc2)ncc(C(=O)C2=C(O)CCCC2=O)c1=O` [Compound 40], the “Plant response rating, Wheat” value turned out to be 0.

A further assay concerns barnyardgrass (Echinochloa crus-galli). Kind of assay: Test A pre-/postemergence plant response. It counts as in vivo. To be noted: Postemergence, 125 g ai/ha; visual injury, 0 to 100 scale (0 no effect, 100 complete control), approx. ten days. A digest of the protocol: as §1
Regarding `Cc1c(Cl)cccc1-n1c(-c2ccccc2)ncc(C(=O)C2=C(O)CCCC2=O)c1=O` [Compound 40], the “Barnyardgrass plant response rating” value stood at 90.

Still in this assay, the particulars now being: Postemergence, 500 g ai/ha; 0 to 100 scale, 0 = no effect, 100 = complete control; approx. ten days.
For `Cc1c(Cl)cccc1-n1c(-c2ccccc2)ncc(C(=O)C2=C(O)CCCC2=O)c1=O` [Compound 40], the “Plant response rating, Barnyardgrass” value is 90.

Staying with this assay, now noted: Preemergence, 125 g ai/ha; 0 to 100 scale, 0 = no effect, 100 = complete control.
For `Cc1c(Cl)cccc1-n1c(-c2ccccc2)ncc(C(=O)C2=C(O)CCCC2=O)c1=O` [Compound 40], the “Plant response rating, Barnyardgrass” value worked out at 10.

Still in this assay, the particulars now being: Preemergence, 500 g ai/ha; visual injury, 0 to 100 scale (0 no effect, 100 complete control), approx. ten days.
Consider `Cc1c(Cl)cccc1-n1c(-c2ccccc2)ncc(C(=O)C2=C(O)CCCC2=O)c1=O` [Compound 40], for which the “Plant response rating, Barnyardgrass” value worked out at 100.

Another assay has as its system winter barley (Hordeum vulgare). Kind of assay: Test B postemergence plant response. The class given is in vivo. To be noted: Postemergence, 31 g ai/ha; scale 0 to 100 (0 no effect, 100 complete control). A digest of the protocol:
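Visual ratings from 0 (no effect) to 100 (complete control), made against controls 13–15 days after treatment, kept in a greenhouse. Compounds were applied postemergence to potted plants at the 1- to 4-leaf stage (2–18 cm).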
In the case of `Cc1c(Cl)cccc1-n1c(-c2ccccc2)ncc(C(=O)C2=C(O)CCCC2=O)c1=O` [Compound 40], the “Plant response rating, Barley” value is 0.

The assay is the same for the next values; noted with them: Postemergence, 62 g ai/ha; scale 0 (no effect) to 100 (complete control); 13 to 15 days.
For `Cc1c(Cl)cccc1-n1c(-c2ccccc2)ncc(C(=O)C2=C(O)CCCC2=O)c1=O` [Compound 40], the “Plant response rating, Barley” value stood at 0.

Still in this assay, the particulars now being: Postemergence, 125 g ai/ha; visual rating after 13 to 15 days, scale 0 (no effect) to 100 (complete control).
As to `Cc1c(Cl)cccc1-n1c(-c2ccccc2)ncc(C(=O)C2=C(O)CCCC2=O)c1=O` [Compound 40], the “Plant response rating, Barley” value is on record as 10.

Staying with this assay, now noted: Postemergence, 250 g ai/ha; scale 0 to 100.
For the compound `Cc1c(Cl)cccc1-n1c(-c2ccccc2)ncc(C(=O)C2=C(O)CCCC2=O)c1=O` [Compound 40], the “Barley plant response rating” value was determined as 10.
